Tests used:
[1] = molecular target: T1, human TLR7 (Homo sapiens, UniProt Q9NYK1); assay: HEK293-humanTLR7 SEAP reporter assay (Example 8); type: cell-based; details: HEK293-hTLR7 SEAP reporter cells, 24 hrs
T1 construct: host or cells: HEK293
T1 sequence (Q9NYK1 27-1049): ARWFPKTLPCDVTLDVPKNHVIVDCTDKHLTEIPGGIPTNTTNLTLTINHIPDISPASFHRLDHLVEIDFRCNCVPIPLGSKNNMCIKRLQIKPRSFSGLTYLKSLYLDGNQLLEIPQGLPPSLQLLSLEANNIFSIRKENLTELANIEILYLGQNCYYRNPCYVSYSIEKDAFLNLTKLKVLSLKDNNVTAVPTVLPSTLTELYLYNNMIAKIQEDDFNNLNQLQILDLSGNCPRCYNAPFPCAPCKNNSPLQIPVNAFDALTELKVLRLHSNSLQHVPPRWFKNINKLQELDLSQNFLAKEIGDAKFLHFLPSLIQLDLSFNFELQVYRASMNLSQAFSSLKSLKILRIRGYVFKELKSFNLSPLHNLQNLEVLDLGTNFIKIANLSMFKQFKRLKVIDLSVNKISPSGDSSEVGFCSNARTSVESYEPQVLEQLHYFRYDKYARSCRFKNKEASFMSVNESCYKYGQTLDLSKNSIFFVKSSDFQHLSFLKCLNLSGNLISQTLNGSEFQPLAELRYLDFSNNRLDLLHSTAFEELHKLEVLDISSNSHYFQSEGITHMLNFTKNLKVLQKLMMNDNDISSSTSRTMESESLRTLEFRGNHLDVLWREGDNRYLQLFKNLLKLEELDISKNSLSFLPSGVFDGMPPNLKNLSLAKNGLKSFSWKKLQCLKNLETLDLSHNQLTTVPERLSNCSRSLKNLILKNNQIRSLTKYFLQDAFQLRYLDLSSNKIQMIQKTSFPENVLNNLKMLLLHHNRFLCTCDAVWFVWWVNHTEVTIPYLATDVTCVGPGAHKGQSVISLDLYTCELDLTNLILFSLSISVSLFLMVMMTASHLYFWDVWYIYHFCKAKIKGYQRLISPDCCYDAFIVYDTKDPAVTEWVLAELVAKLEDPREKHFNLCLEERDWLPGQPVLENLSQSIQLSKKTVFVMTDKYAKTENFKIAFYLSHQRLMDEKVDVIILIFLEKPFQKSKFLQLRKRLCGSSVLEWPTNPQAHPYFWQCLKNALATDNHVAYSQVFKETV
Method: (§1) In this example, the in vitro activity of compounds to activate human TLR7 (or human TLR8 or mouse TLR7) pathway was evaluated on HEK293 reporter cells transfected with human TLR7 (or human TLR8 or mouse TLR7) and an inducible SEAP (secreted embryonic alkaline phosphatase) reporter gene. The SEAP reporter gene is placed under the control of the IFN-β minimal promoter fused to five NF-κB and AP-1-binding sites. Stimulation with a TLR7 agonist activates NF-κB and AP-1 which induces the production of SEAP. Levels of SEAP were determined by HEK-Blue Detection medium.
(§2) The in vitro activity of compounds on TLR7 (human and mouse) and TLR8 (human only) reporter cell lines was assessed as follows. 5-(2-methoxy-4-(piperazin-1-ylmethyl)benzyl)-N4-pentyl-5H-pyrrolo[3,2-d]pyrimidine-2,4-diamine (Compound 1) is a compound used for comparison and has the structure shown below:
(§3) HEK293-humanTLR7 (hTLR7), HEK293-mouseTLR7 (mTLR7) and HEK293-humanTLR8 (hTLR8) reporter cell lines were purchased from Invivogen and cell lines were maintained in the manufacturer's recommended culture medium with required supplemental antibiotics. On the day of assay, the cells were harvested with Accutase and counted by the Vi-CELL Cell Viability Analyzers. Cells were resuspended in HEK blue detection medium and a total of 10,000 cells were seeded in each well of a 384-well flat bottom plate. Serial dilutions of test compounds (1:4 serial dilution starting from 5 μM) were added into treatment wells and assay plates were cultured at 37° C. in a CO2 incubator for 24 hrs. The plates were then read by spectrophotometry at 640 nm. Data was fitted with non-linear regression analysis, using a log(inhibitor) vs. response-variable slope, 3-parameter fit with GraphPad Prism. There result was reported in Table 1 as EC50 (the midpoint of the curve, or concentration at which 50% of the maximum effect was observed).

[2] = molecular target: T2, mouse TLR7 (Mus musculus, UniProt P58681); assay: HEK293-mouseTLR7 SEAP reporter assay (Example 8); type: cell-based; details: HEK293-mTLR7 SEAP reporter cells, 24 hrs
T2 construct: host or cells: HEK293
T2 sequence (P58681 27-1050): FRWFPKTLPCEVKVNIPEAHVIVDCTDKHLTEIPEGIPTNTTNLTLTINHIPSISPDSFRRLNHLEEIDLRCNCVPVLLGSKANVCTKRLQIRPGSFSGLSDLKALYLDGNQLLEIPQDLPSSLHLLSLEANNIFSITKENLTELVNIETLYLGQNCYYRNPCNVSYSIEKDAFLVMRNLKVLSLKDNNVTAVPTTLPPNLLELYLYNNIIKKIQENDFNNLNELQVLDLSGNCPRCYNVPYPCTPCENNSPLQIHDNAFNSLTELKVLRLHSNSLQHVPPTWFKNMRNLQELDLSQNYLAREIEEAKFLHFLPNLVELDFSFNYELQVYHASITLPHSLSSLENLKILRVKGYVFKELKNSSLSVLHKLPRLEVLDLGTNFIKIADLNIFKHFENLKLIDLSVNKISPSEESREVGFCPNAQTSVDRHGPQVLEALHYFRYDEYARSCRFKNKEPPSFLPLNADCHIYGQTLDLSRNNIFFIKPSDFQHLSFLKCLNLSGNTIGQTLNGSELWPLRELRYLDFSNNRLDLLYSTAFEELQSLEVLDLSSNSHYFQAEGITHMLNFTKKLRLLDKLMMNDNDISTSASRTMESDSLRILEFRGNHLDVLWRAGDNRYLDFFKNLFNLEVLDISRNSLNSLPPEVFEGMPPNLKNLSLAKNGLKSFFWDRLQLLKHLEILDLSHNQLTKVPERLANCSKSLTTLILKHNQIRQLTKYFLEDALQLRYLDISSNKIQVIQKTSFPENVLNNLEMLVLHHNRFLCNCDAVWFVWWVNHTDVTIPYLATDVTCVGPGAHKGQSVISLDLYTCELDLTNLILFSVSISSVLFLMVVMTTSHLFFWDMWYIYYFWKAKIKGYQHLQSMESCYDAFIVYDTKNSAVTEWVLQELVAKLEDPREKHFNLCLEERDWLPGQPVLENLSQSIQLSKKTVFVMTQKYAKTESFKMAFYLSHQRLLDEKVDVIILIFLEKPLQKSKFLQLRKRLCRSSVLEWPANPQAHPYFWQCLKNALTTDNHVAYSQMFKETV
Method: as §1, §2, §3

Row | Compound | EC50 [1] [nM] | EC50 [2] [nM]
1 | CCCCCNc1nc(N)nc2ccn(Cc3ccc(CN4CCNCC4)cc3OC)c12 [Compound 1, 5-(2-methoxy-4-(piperazin-1-ylmethyl)benzyl)-N4-pentyl-5H-pyrrolo[3,2-d]pyrimidine-2,4-diamine, reference compound] | 1.9 | 4.6
2 | CCCCCNc1nc(N)nc2ccn(Cc3ccc(CN4CC5(CNCCO5)C4)cc3OC)c12 [Compound 10, 5-[[2-methoxy-4-(5-oxa-2,8-diazaspiro[3.5]nonan-2-ylmethyl)phenyl]methyl]-N4-pentyl-pyrrolo[3,2-d]pyrimidine-2,4-diamine] | 1.5 | 3.7
3 | CCCCCNc1nc(N)nc2ccn(Cc3ccc(CN4CC(NC)C4)cc3OC)c12 [Compound 2, 5-(2-methoxy-4-((3-(methylamino)azetidin-1-yl)methyl)benzyl)-N4-pentyl-5H-pyrrolo[3,2-d]pyrimidine-2,4-diamine] | 1.6 | 10.2
